This is an account of results in US20220178944A1, “METHODS FOR IDENTIFYING DIFFERENTIAL HISTONE RETENTION FOR EPIGENETIC ALTERATIONS IN GERMLINE DNA OF ANIMALS” (Washington State University, priority 2020, published 2022).

One data set relates to Sprague Dawley rats. The experiment in a line: Histopathology and disease classification, F3 generation atrazine lineage males. In kind it is in vivo, rat. The procedure:
Female and male rats of an outbred strain Hsd:Sprague Dawley SD (Harlan) at 70 to 100 days of age were fed ad lib with a standard rat diet and ad lib tap water. Timed-pregnant females on days 8 through 14 of gestation were administered daily intraperitoneal injections of atrazine (25 mg/kg BW/day dissolved in PBS) (Chem Service, Westchester Pa.) or dimethyl sulfoxide (DMSO) or as previously described. Twenty-five mg/kg for atrazine is 4% of rat oral LD50 and 50% of NOAEL.
The gestating female rats treated were designated as the F0 generation. F1-F3 generation control and atrazine lineages were housed in the same room and racks with lighting, food and water.
Rats were euthanized at 12 months of age by CO2 inhalation and cervical dislocation for tissue harvest. Testis, prostate, ovary, kidney, and gonadal fat pads were fixed in Bouin's solution (Sigma) followed by 70% ethanol, then processed for paraffin embedding and hematoxylin, and eosin (H & E) staining by standard procedures for histopathological examination. Paraffin five micron sections were processed and stained (Nationwide Histology, Spokane Wash., USA).
Full necropsies were performed as required on animals that died prior to the time of scheduled sacrifice at one year and tumor classifications were performed.
Upon dissection a brief examination of abdominal and thoracic organs was performed to look for obvious abnormalities. The tissues evaluated histologically were selected from previous literature showing them to have pathology in transgenerational models, with an emphasis on reproductive organs. Histopathology readers were trained to recognize the specific abnormalities evaluated for this study in rat testis, ventral prostate and kidney (see below). Two different readers initially evaluated the tissues. […] Readers were blinded to the exposure groups. A set of quality control (QC) slides was generated for each tissue and was read by each reader prior to evaluating any set of experimental slides. These QC slide results are monitored for reader accuracy and concordance.
Testis histopathology criteria included the presence of vacuoles in the seminiferous tubules, azoospermic atretic seminiferous tubules, and ‘other’ abnormalities including sloughed spermatogenic cells in the center of the tubule and a lack of a tubule lumen. Prostate histopathology criteria included the presence of vacuoles in the glandular epithelium, atrophic glandular epithelium and hyperplasia of prostatic gland epithelium (FIG. 25). Kidney histopathology criteria included reduced size of glomerulus, thickened Bowman's capsule, and the presence of proteinaceous fluid-filled cysts >50 μm in diameter (FIG. 25). A cut-off was established to declare a tissue ‘diseased’ based on the mean number of histopathological abnormalities plus two standard deviations from the mean of control group tissues, as assessed by each of the individual readers. This number (i.e. greater than two standard deviations) was used to classify rats into those with and without testis, prostate, or kidney disease in the F3 generation lineage. A rat tissue section was finally declared ‘diseased’ only when at least two of the three readers marked the same tissue section ‘diseased’.
Lean phenotype was assessed with a decrease in adipocyte size (area), body mass index (BMI) and abdominal adiposity. BMI was calculated with weight (g)/length (cm)^2 with the length of the animal measured from the nose to the base of the tail. Gonadal fat pad slides were imaged using a Nikon Eclipse E800 microscope (10×) with an AVT Prosilica GE1050C Color GigE camera. Five field of view image captures were taken per slide in varying parts of the fat pad. Adipocyte size was measured converting pixels into microns using Adiposoft. Measurements of the 20 largest cells from each image for a total of 100 were averaged as hypertrophic cells are the most metabolically relevant and susceptible to cell death. […]

The nature of data set [1]: Glyphosate metabolism turnover (half-life). The format is in vivo. The conditions noted are these: worked out from 2-4 half-lives per 24-hour period.
The conditions of data set [2]: in vivo; cited from earlier work.
For data set [3] the following is noted: cited from earlier work.
Another data set deals with sperm DNA methylation. In words: Sperm differential DNA methylation regions (DMRs), MeDIP-Seq, glyphosate versus control lineage. The format is in vivo, rat. Particulars: F3 generation males, edgeR p<1e-05. The text has this:
(§1) Outbred Sprague Dawley SD male and female rats were fed a standard diet with water ad lib and mated. […] Female and male rats of an outbred strain Hsd:Sprague Dawley SD (Harlan) at 70 to 100 days of age were fed ad lib with a standard rat diet and ad lib tap water.
(§2) The gestating female rats treated were designated as the F0 generation. Breeding for each generation occurred at 70-90 days and 5 different litters were generated with no cousin or sibling breeding to avoid any inbreeding artifacts. Litters were culled to 10 pups (5 males and 5 females) between days 3-5 of birth to avoid litter effects. […] The F3 generation males were aged to 1 year of age for pathology analysis.
Briefly, the epididymis was dissected free of fat and connective tissue, then, after cutting open the cauda, placed into 6 ml of phosphate buffer saline (PBS) for 20 minutes at room temperature. Further incubation at 4° C. will immobilize the sperm. The tissue was then minced, the released sperm pelleted at 4° C. 3,000×g for 10 min, then resuspended in NIM buffer and stored at −80° C. for further processing.
An appropriate amount of rat sperm suspension was used for DNA extraction. […]
Genomic DNA was sonicated and run on 1.5% agarose gel for fragment size verification. […] DNA concentration was measured in Qubit (Life Technologies) with the ssDNA kit (Molecular Probes Q10212). […]

Data set [4] relates to sperm histone H3 retention sites. In words: Sperm differential histone retention regions (DHRs), histone H3 ChIP-Seq, glyphosate versus control lineage. The format is in vivo, rat. Particulars: F3 generation males; F0 25 mg/kg/day i.p. gestation days 8-14; edgeR p<1e-05.
Excerpt: as §1, §2
Histone chromatin immunoprecipitation with genomic DNA was performed. Individual rat sperm were collected, and the sperm counts were determined for each individual. A sonication of 10 seconds was performed for each sperm sample to remove any somatic cell contamination using a Sonic Dismembrator Model 300 (Thermo Scientific Fisher, USA) then centrifuged 1800×g for 5 minutes at 4° C. then resuspended and counted individually on a Neubauer counting chamber (Propper manufacturing Co., Inc., New York, USA). The sperm samples were reconstituted up to 1 ml with PBS (phosphate buffered saline). […]

The mark [5] stands for this setting: F3 generation atrazine lineage males, 1 year of age, # evaluated 55.

In the case of `CCNc1nc(Cl)nc(NC(C)C)n1` [atrazine], in the data set on Sprague Dawley rats (F3 generation atrazine lineage), the “prevalence of transgenerational lean pathology in the exposed population” value is “nearly a third of the animals”. In the data set with Sprague Dawley rats (setting [5]), the “# affected, Kidney disease” value amounted to 8; the “# affected, Lean” value came out at 15; the “# affected, Obese” value was 4; the “# affected, Prostate disease” value was determined as 4. Besides, in the data set with Sprague Dawley rats (setting [5]), the “# affected, Testis disease” value turned out to be 12 and the “# affected, Tumor” value is recorded as 1. The “# affected, Puberty Late” value in the data set with Sprague Dawley rats (F3 generation atrazine lineage males, # evaluated 55) is listed as 10. Moreover, in the data set with Sprague Dawley rats (F3 generation atrazine lineage males, F0 25 mg/kg/day i.p. gestation days 8-14, # evaluated 55), the “# affected, Puberty Early” value came to 0.
On to `O=C(O)CNCP(=O)(O)O` [glyphosate], for which the “daily decrease of concentration during the transient exposure period” value in data set [1] was 75-90%. Moreover, the “half-life (metabolism turnover)” value in data set [2] was 5 to 10 h. In addition, the “No Observational Adverse Effect Level (NOAEL) dose” value in data set [3] (direct exposure, mammalian rat model) is 50 mg/kg per day. Besides, in data set [3] (rat, in vivo), the “No Observable Adverse Effect Level (NOAEL) exposure” value was 50 mg/kg/day. For the same molecule, the “total number of sperm DMRs, control versus glyphosate (All Window)” value in the data set on sperm DNA methylation (F0 25 mg/kg/day i.p. gestation days 8-14) is 340. Also, the “number of sperm DMRs with multiple neighboring 1000 bp windows, control versus glyphosate” value in the data set on sperm DNA methylation was determined as 11. Moreover, the “number of sperm DHRs, glyphosate versus control” value in data set [4] is 836.
